Results published in patent US9567318B2, “Substituted pyrimidine compounds and uses thereof” (Memorial Sloan-Kettering Cancer Center, priority 2009, dated 2017).

Columns and labels:
[1] = test system: Kasumi-1 acute myeloid leukemia cells; test: Growth Inhibition Assay (Alamar blue), Kasumi-1; format: cell-based, human; details: Kasumi-1 cells
Protocol: (§1) The IC50 values listed for some of these compounds illustrate the antiproliferative effects of the subject compounds and were obtained using the Growth Inhibition assays described herein.
(§2) Growth Inhibition Assay. Antiproliferative effects of inhibitors were evaluated using the dye Alamar blue. This reagent offers a rapid objective measure of cell viability in cell culture, and it uses the indicator dye resazurin to measure the metabolic capacity of cells, an indicator of cell viability. Briefly, cells were plated on Costar 96-well plates. For attached cells (such as SKBr3, MDA-MB-468, LNCaP, MRCS), 8,000 cells/well were used. For suspension cells (such as MOLM-13, Kasumi-1, OCI-Ly7, PBL), 20,000 cells/well were plated. Cells were allowed to incubate for 24 h at 37° C. before drug treatment. Drugs were added in triplicates at the indicated concentrations, and the plate was incubated for 72 h. Alamar Blue (440 μM) was added, and the plate read 6 h later using the Analyst GT (Fluorescence intensity mode, excitation 530 nm, emission 580 nm, with 560=dichroic mirror). Results were analyzed using the Softmax Pro software. The percentage cell growth inhibition was calculated by comparing fluorescence readings obtained from treated versus control cells, accounting for initial cell population (time zero).

[2] = test system: SKBr3 HER2+ breast cancer cells; test: Growth Inhibition Assay (Alamar blue), SKBr3; format: cell-based, human
Protocol: as §1, §2

IC50 ([1]; Homo sapiens, Kasumi 1, 72 h) [µM] | IC50 ([2]; Homo sapiens, SK-BR-3, 72 h) [µM] | SMILES | further results
20.1 | 25.8 | Cc1nc(N2CCN(C)CC2)nc(C)c1Sc1nccc(NC(=O)C2CC2)n1 [YK90, N-(2-(4,6-dimethyl-2-(4-methylpiperazin-1-yl)pyrimidin-5-ylthio)pyrimidin-4-yl)cyclopropanecarboxamide] | IC50 ([1]; 72 h): 27.1 µM
0.8 | 1.2 | C=CC(=O)Nc1ccnc(Sc2c(OC)nc(N3CCN(C)CC3)nc2OC)n1 [YK71, N-(2-(4,6-dimethoxy-2-(4-methylpiperazin-1-yl)pyrimidin-5-ylthio)pyrimidin-4-yl)acrylamide] | –
6.2 | 14.4 | C=CC(=O)Nc1ccnc(Sc2c(C)nc(N3CCOCC3)nc2C)n1 [YK117, N-(2-(4,6-dimethyl-2-morpholinopyrimidin-5-ylthio)pyrimidin-4-yl)acrylamide] | –
12 | 6.8 | Cc1nc(N2CCN(C)CC2)nc(C)c1Sc1nccc(NC(=O)c2ccco2)n1 [YK89, N-(2-(4,6-dimethyl-2-(4-methylpiperazin-1-yl)pyrimidin-5-ylthio)pyrimidin-4-yl)furan-2-carboxamide] | IC50 ([1]; 72 h): 7.5 µM
42.2 | 4.3 | C=CC(=O)Nc1ccnc(Sc2c(OC)nc(N3CCCC3)nc2OC)n1 [YK74, N-(2-(4,6-dimethoxy-2-(pyrrolidin-1-yl)pyrimidin-5-ylthio)pyrimidin-4-yl)acrylamide] | –
4.8 | 1.8 | C=CC(=O)Nc1ccnc(Sc2c(C)nc(N3CCN(C)CC3)nc2C)n1 [YK85, N-(2-(4,6-dimethyl-2-(4-methylpiperazin-1-yl)pyrimidin-5-ylthio)pyrimidin-4-yl)acrylamide] | –
– | 18.3 | CCC(=O)Nc1cccc(Sc2c(OC)nc(N3CCN(C)CC3)nc2OC)c1 [YK130, N-(3-(4,6-dimethoxy-2-(4-methylpiperazin-1-yl)pyrimidin-5-ylthio)phenyl)propionamide] | –
8.8 | – | CCC(=O)Nc1cccc(Sc2c(C)nc(N3CCNCC3)nc2C)c1 [YK146, N-(3-(4,6-dimethyl-2-(piperazin-1-yl)pyrimidin-5-ylthio)phenyl)propionamide] | IC50 ([1]; 72 h): 9 µM
9.5 | – | C=C(C)C(=O)Nc1ccnc(Sc2c(OC)nc(N3CCCC3)nc2OC)n1 [YK108, N-(2-(4,6-dimethoxy-2-(pyrrolidin-1-yl)pyrimidin-5-ylthio)pyrimidin-4-yl)methacrylamide] | –
> 100 | – | CCC(=O)Nc1cc(N)nc(Sc2c(OC)nc(N3CCN(C)CC3)nc2OC)n1 [YK13, N-(6-amino-2-(4,6-dimethoxy-2-(4-methylpiperazin-1-yl)pyrimidin-5-ylthio)pyrimidin-4-yl)propionamide] | –
15.7 | – | COc1nc(N2CCOCC2)nc(OC)c1Sc1nccc(NC(C)=O)n1 [YK65, N-(2-(4,6-dimethoxy-2-morpholinopyrimidin-5-ylthio)pyrimidin-4-yl)acetamide] | –
– | > 100 | COc1nc(N2CC[N+](C)([O-])CC2)nc(OC)c1Sc1nccc(NC(C)=O)n1 [YK75, 4-(5-(4-acetamidopyrimidin-2-ylthio)-4,6-dimethoxypyrimidin-2-yl)-1-methylpiperazine 1-oxide] | –

More lines, now with the values behind:

SMILES | IC50 ([1]; Homo sapiens, Kasumi 1, 72 h) [µM] | IC50 ([2]; Homo sapiens, SK-BR-3, 72 h) [µM] | further results
C=C(C)C(=O)Nc1cccc(Sc2c(OC)nc(N3CCOCC3)nc2OC)c1 [PDP5, N-(3-(4,6-dimethoxy-2-morpholinopyrimidin-5-ylthio)phenyl)methacrylamide] | – | 18.1 | –
CCC(=O)Nc1cccc(Sc2c(OC)nc(N3CCN(CCOCCOCCOCCO)CC3)nc2OC)c1 [YK141, N-(3-(2-(4-(2-(2-(2-(2-hydroxyethoxy)ethoxy)ethoxy)ethyl)piperazin-1-yl)-4,6-dimethoxypyrimidin-5-ylthio)phenyl)propionamide] | – | 38.9 | –
C=CC(=O)Nc1ccnc(Sc2c(OC)nc(OC)nc2OC)n1 [YK76, N-(2-(2,4,6-trimethoxypyrimidin-5-ylthio)pyrimidin-4-yl)acrylamide] | 22.5 | 2.4 | –
C=C(C)C(=O)Nc1cccc(Sc2c(OC)nc(N3CCN(C)CC3)nc2OC)c1 [YK132, N-(3-(4,6-dimethoxy-2-(4-methylpiperazin-1-yl)pyrimidin-5-ylthio)phenyl)methacrylamideN-(3-(4,6-dimethoxy-2-(4-methylpiperazin-1-yl)pyrimidin-5-ylthio)phenyl)methacrylamide] | – | – | IC50 ([1]; 72 h): 7.7 µM; IC50 ([2]; 72 h): 17.8 µM
CCC(=O)Nc1cccc(Sc2c(OC)nc(N3CCOCC3)nc2OC)c1 [PDP4, N-(3-(4,6-dimethoxy-2-morpholinopyrimidin-5-ylthio)phenyl)propionamide] | > 100 | > 100 | –
CCC(=O)Nc1cccc(Sc2c(OC)nc(N3CCN(CCOCCOCCOCCOC(=O)CCCCC4SCC5NC(=O)NC54)CC3)nc2OC)c1 (stereo not drawn) [YK142, 2-(2-(2-(2-(4-(4,6-dimethoxy-5-(3-propionamidophenylthio)pyrimidin-2-yl)piperazin-1-yl)ethoxy)ethoxy)ethoxy)ethyl 5-(2-oxohexahydro-1H-thieno[3,4-d]imidazol-4-yl)pentanoate] | – | 47.9 | –
C=CC(=O)Nc1cccc(Sc2c(OC)nc(N3CCOCC3)nc2OC)c1 [PDP3, N-(3-(4,6-dimethoxy-2-morpholinopyrimidin-5-ylthio)phenyl)acrylamide] | 11.4 | 16.5 | –
COc1nc(N2CCOCC2)nc(OC)c1Sc1cccc(NC(=O)C2CC2)c1 [PDP6, N-(3-(4,6-dimethoxy-2-morpholinopyrimidin-5-ylthio)phenyl)cyclopropanecarboxamide] | – | 9.9 | –
CCCCCCCC(=O)Nc1cc(N)nc(Sc2c(OC)nc(N3CCN(CCO)CC3)nc2OC)n1 [YK21, N-(6-amino-2-(2-(4-(2-hydroxyethyl)piperazin-1-yl)-4,6-dimethoxypyrimidin-5-ylthio)pyrimidin-4-yl)octanamide] | 7.2 | – | –
COc1nc(N2CCN(C)CC2)nc(OC)c1Sc1nc(N)cc(NC(=O)CCN(C)C)n1 [YK51, N-(6-amino-2-(4,6-dimethoxy-2-(4-methylpiperazin-1-yl)pyrimidin-5-ylthio)pyrimidin-4-yl)-3-(dimethylamino)propanamide] | 8 | – | –
C=CC(=O)Nc1cc(N)nc(Sc2c(OC)nc(N3CCCCC3)nc2OC)n1 [YK19, N-(6-amino-2-(4,6-dimethoxy-2-(piperidin-1-yl)pyrimidin-5-ylthio)pyrimidin-4-yl)acrylamide] | 2.5 | – | –
C=CC(=O)Nc1cc(N)nc(Sc2c(OC)nc(N3CCN(CCOCCOCCOCCOC(=O)CCCCC4SCC5NC(=O)NC54)CC3)nc2OC)n1 (stereo not drawn) [YK55, 2-(2-(2-(2-(4-(5-(4-acrylamido-6-aminopyrimidin-2-ylthio)-4,6-dimethoxypyrimidin-2-yl)piperazin-1-yl)ethoxy)ethoxy)ethoxy)ethyl 5-(2-oxohexahydro-1H-thieno[3,4-d]imidazol-4-yl)pentanoate] | 13.1 | – | –
COc1nc(N2CCN(C)CC2)nc(OC)c1Sc1nc(N)cc(N)n1 [YK2, 2-(4,6-dimethoxy-2-(4-methylpiperazin-1-yl)pyrimidin-5-ylthio)pyrimidine-4,6-diamine] | 57.2 | – | –
COc1nc(N2CCCCC2)nc(OC)c1Sc1nccc(N)n1 [YK68, 2-(4,6-dimethoxy-2-(piperidin-1-yl)pyrimidin-5-ylthio)pyrimidin-4-amine] | 14.7 | – | –
COc1nc(NCCCCCCO)nc(OC)c1Sc1nc(N)cc(N)n1 [YK52, 6-(5-(4,6-diaminopyrimidin-2-ylthio)-4,6-dimethoxypyrimidin-2-ylamino)hexan-1-ol] | 779 | – | –
CCCCCCCC(=O)Nc1cc(N)nc(Sc2c(OC)nc(N3CCOCC3)nc2OC)n1 [YK22, N-(6-amino-2-(4,6-dimethoxy-2-morpholinopyrimidin-5-ylthio)pyrimidin-4-yl)octanamide] | 12.3 | – | –
COc1nc(N)nc(OC)c1Sc1nc(N)cc(NC(=O)CCN2CCN(C)CC2)n1 [YK6, N-(6-amino-2-(2-amino-4,6-dimethoxypyrimidin-5-ylthio)pyrimidin-4-yl)-3-(4-methylpiperazin-1-yl)propanamide] | 23 | – | –
CCCCCCCC(=O)Nc1cc(N)nc(Sc2c(OC)nc(N3CCN(C)CC3)nc2OC)n1 [YK20, N-(6-amino-2-(4,6-dimethoxy-2-(4-methylpiperazin-1-yl)pyrimidin-5-ylthio)pyrimidin-4-yl)octanamide] | 6.3 | – | –
COc1nc(N)nc(OC)c1Sc1nccc(NC(C)=O)n1 [YK61, N-(2-(2-amino-4,6-dimethoxypyrimidin-5-ylthio)pyrimidin-4-yl)acetamide] | 94.4 | – | –
CCCCN1CCN(c2nc(OC)c(Sc3nc(N)cc(N)n3)c(OC)n2)CC1 [YK25, 2-(2-(4-butylpiperazin-1-yl)-4,6-dimethoxypyrimidin-5-ylthio)pyrimidine-4,6-diamine] | > 100 | – | –
C=CC(=O)Nc1cc(N)nc(Sc2c(OC)nc(N3CCN(CCOCCOCCOCCO)CC3)nc2OC)n1 [YK54, N-(6-amino-2-(2-(4-(2-(2-(2-(2-hydroxyethoxy)ethoxy)ethoxy)ethyl)piperazin-1-yl)-4,6-dimethoxypyrimidin-5-ylthio)pyrimidin-4-yl)acrylamide] | 4.8 | – | –
C=CC(=O)Nc1cc(N)nc(Sc2c(OCC)nc(N3CCOCC3)nc2OCC)n1 [YK44, N-(6-amino-2-(4,6-diethoxy-2-morpholinopyrimidin-5-ylthio)pyrimidin-4-yl)acrylamide] | 1.2 | – | –
C=CC(=O)Nc1cc(N)nc(Sc2c(OC)nc(N3CCOCC3)nc2OC)n1 [YK18, N-(6-amino-2-(4,6-dimethoxy-2-morpholinopyrimidin-5-ylthio)pyrimidin-4-yl)acrylamide] | 3 | – | –
